Patent US20100120662A1, “Glucose uptake modulator and method for treating diabetes or diabetic complications” (POSTECH Foundation, priority 2005, published 2010)

Columns and labels:
[1] = system: GLUT4; assay: GLUT4 translocation to the plasma membrane in 3T3-L1 adipocytes; format: cell-based; conditions: 20 μM, 10 min, plasma membrane fraction
Description: Membrane fractionation of adipocytes. For obtaining total membranes (TM) from 3T3-L1 adipocytes, cells were collected into 10 ml of ice-cold HES buffer (250 mM sucrose, 1 mM EDTA, 1 mM phenylmethylsulfonyl fluoride [PMSF], 1 μM pepstatin, 1 μM aprotinin, 1 μM leupeptin, and 20 mM HEPES, pH 7.4) and subsequently homogenized with 30 strokes in a glass Dounce homogenizer at 4° C. After centrifugation at 1,000 g for 5 min at 4° C. to remove unbroken cells, the supernatant was then centrifugated at 212,000 g for 90 min at 4° C. to yield a pellet of total cellular membranes. To obtain the plasma membrane (PM) subcellular fraction from 3T3-L1 adipocytes, differential ultracentrifugation was used as described previously (Perrini, S., et al., Diabetes 53, pp. 41-52, 2004).
Immunoblotting. For preparing total cell lysates, 3T3-L1 adipocytes were washed with Ca^2+/Mg^2+-free PBS and then lysed in the lysis buffer (50 mM HEPES, pH 7.2, 150 mM NaCl, 50 mM NaF, 1 mM Na3VO4, 10% glycerol, 1% Triton X-100). The lysates were centrifuged at 15,000 rpm for 15 min at 4° C. […]
FIGS. 3A and 3B show LPC stimulates GLUT4 translocation in 3T3-L1 adipocytes. […] In each experiment, the relative increase or decrease in the integrated density value (IDV) of GLUT4 after stimulation with compounds is calculated. B) Quantitation of relative increases is depicted. […]

[2] = system: C57BLKSJ-db/db mice; assay: Acute glucose lowering in insulin-resistant obese db/db mice; format: in vivo, mouse; conditions: injection of LPC
Description: (§1) Animals. Male ICR mice were purchased from hyochang science (ROK). C57BLKSJ-db/db mice were purchased from SLC (Japan). After intravenous injection of LPC, blood glucose was measured regularly with a portable glucose meter (Gluco-Dr, ROK) after tail snipping. For measurement of serum insulin, blood samples of mice were determined with the insulin-RIA Kit (LINCO, Missouri). Insulin deficient mice were induced in male ICR mice by two consecutive daily intraperitoneal injection of STZ (200 mg/kg) dissolved in sodium citrate (pH 5.5). On the third day after the last STZ injection, acute glucose lowering effect was analyzed after intravenous injection of vehicle, LPC or insulin as described above.
(§2) Eight-week-old male mice were intravenously injected with PBS, insulin, LPC, or LPE. Blood glucose was monitored after dosing (0 to 120 min). […] All animals had free access to water. Animal care was in accordance with institutional guidelines. All data are shown as means±SE (n=5-6).*P<0.05.

[3] = system: C2C12 muscle cells; assay: Glucose uptake in C2C12 muscle cells (LPC); format: cell-based; conditions: data not shown
[4] = system: male ICR mice; assay: Serum insulin level in mice after single intravenous injection; format: in vivo, mouse
Description: as §1, §2

[5] = system: STZ-treated insulin deficient ICR male mice; assay: Acute glucose lowering in streptozotocin (STZ)-treated insulin deficient ICR mice; format: in vivo, mouse; conditions: 30 μmol/kg i.v. LPC
Description: as §1, §2

[6] = system: IRS1 and AKT; assay: IRS1 and AKT phosphorylation in 3T3-L1 adipocytes (immunoblot); format: cell-based; conditions: LPC treatment of 3T3-L1 adipocytes
Description: Immunoblotting. For preparing total cell lysates, 3T3-L1 adipocytes were washed with Ca^2+/Mg^2+-free PBS and then lysed in the lysis buffer (50 mM HEPES, pH 7.2, 150 mM NaCl, 50 mM NaF, 1 mM Na3VO4, 10% glycerol, 1% Triton X-100). The lysates were centrifuged at 15,000 rpm for 15 min at 4° C. The proteins were denatured by boiling in laemmli sample buffer for 5 min at 95° C., separated by SDS-PAGE. SDS-gel was transferred to nitrocellulose membrane using Hoefer wet transfer system. Membranes were blocked in TTBS (20 mM Tris-HCl, pH 7.6, 150 mM NaCl, 0.05% Tween 20) containing 5% skimmed milk powder for 30 min and then incubated with antibodies for 3 hours. After washing membranes several times with TTBS, the blots were incubated with HRP (Horseradish peroxidase)-conjugated goat anti-rabbit for 1 hour. The blots were washed with TTBS and developed by ECL.

[7] = system: male ICR mice; assay: Acute blood glucose lowering in normal ICR mice after intravenous lysophospholipid; format: in vivo, mouse
Description: as §1, §2

[8] = system: 3T3-L1 adipocytes; assay: Cytotoxicity of LPC concentration used on 3T3-L1 adipocytes; format: cell-based; conditions: 20 μM LPC
[9] = system: 3T3-L1 adipocytes; assay: [14C] 2-deoxy-D-glucose uptake in 3T3-L1 adipocytes; format: cell-based; conditions: for stimulation of glucose uptake: equimolar 20 μM, 10 min
Description: Cell culture: 3T3-L1 fibroblasts were grown to confluence in DMEM containing a high glucose concentration, 10% fetal bovine serum, 50 U of penicillin per ml, and 50 ug of streptomycin per ml and maintained in a 5% CO2 humidified atmosphere at 37° C. 3T3-L1 was induced to differentiate into adipocytes, as described previously (van den Berghe, N., et al., Mol Cell Biol 14, pp. 2372-2377, 1994).
Glucose uptake measurement. For measuring glucose uptake in 3T3-L1 adipocytes, cells were grown in serum-free DMEM for 16 h and then incubated in the absence or presence of insulin or lysophospholipids for the indicated times at 37° C. Uptake was measured by adding 1 μCi of [^14C] 2-deoxy-D-glucose and 3 mM 2-deoxy-D-glucose. After 10 min, the assay was terminated by two quick washes with ice-cold PBS. Cells were lysed in 0:5 ml of lysis buffer containing 0.5 N NaOH and 0.1% SDS. The cell lysates were used for liquid scintillation counting and nonspecific uptake was assayed in the presence of 10 μM cytochalasin B (van den Berghe, N., et al., Mol Cell Biol 14, pp. 2372-2377, 1994).
FIG. 2A to 2D show the effects of LPC on the glucose uptake in 3T3-L1 adipocytes. […] After these treatments, [^14C] 2-deoxy-D-glucose uptake was measured for 10 min as described in Material Methods. […] FIGS. 2C and 2D show relative [^14C] 2-deoxy-D-glucose uptake in 3T3-L1 adipocytes incubated in the absence (control) or presence of equimolar concentrations (20 μM) of myristoyl lysophosphatidylcholine (14:0 LPC), palmytoyl lysophosphatidylcholine (16:0 LPC), stearoyl lysophosphatidylcholine (18:0 LPC), palmytoyl lysophsophatidylethanolamine (16:0 LPE), palmytoyl lyso-phosphatidylinositol (16:0 LPI), palmytoyl lysophosphatidylglycerol (16:0 LPG) for 10 min. Values are mean±SE of three independent experiments performed in triplicate. *P<0.05 vs. basal.

[10] = 3T3-L1 adipocytes, 10 min incubation

CCCCCCCCCCCCCCCC(=O)OC[C@@H](O)COP(=O)([O-])OCC[N+](C)(C)C [LPC, palmytoyl lysophosphatidylcholine]
PM content of GLUT4 proteins [1]: 180 % of basal | blood glucose in insulin-resistant obese db/db mice [2]: dropped to near normal levels | rate of glucose uptake in C2C12 muscle cells [3]: increased the rate of glucose uptake in a dose dependent manner | change in blood insulin levels [4]: not due to changes in blood insulin levels | blood glucose concentrations in STZ-treated insulin deficient mice [5]: significantly reduced blood glucose concentrations | phosphorylation of IRS1 and AKT [6]: had no effects on phosphorylation of IRS1 and AKT | time to statistically significant fall in blood glucose ([7]; 15 or 30 μmol/kg i.v.): ≤ 30 min | blood glucose levels in ICR mice ([7]; 15 or 30 μmol/kg i.v., acute): statistically significant fall in blood glucose levels | blood glucose lowering, comparison of lysophospholipid species ([7]; doses equimolar to 30 μmol/kg i.v., ICR mice): significant effect on the blood glucose lowering | cytotoxicity [8]: not cytotoxic | incubation time at which glucose uptake was maximally increased ([9]; 20 μM, 0 to 20 min): 10 min | concentration of initial statistically significant effect on glucose uptake [9, 10]: 1 µM | concentration of maximal effect on glucose uptake [9, 10]: 20 µM | time and dose dependence of glucose uptake ([9]; 3T3-L1 adipocytes, various concentrations): time- and dose-dependent increase in glucose uptake | stimulation of glucose uptake [9]: specifically stimulated glucose uptake | stimulation of glucose uptake ([9]; listed as palmytoyl LPC): stimulated glucose uptake
